{"source": "patent US20160045498A1", "about": "“METHODS OF TREATING DISEASES CHARACTERIZED BY EXCESSIVE WNT SIGNALLING” (THE WALTER AND ELIZA HALL INSTITUTE OF MEDICAL RESEARCH, priority 2013, published 2016)", "key": {"SW480 cells [1]": {"tested_on": "SW480 cells", "assay": "Soft agar colony growth assay, SW480", "assay_type": "cell-based, human", "details": "SW480, 10 days; AZD1480 1 μM, S3I-201 50 μM, IL11 10 ng/ml", "method": "e Photograph of SW480 and SW480^APC CRC cells grown for 10 days under colony forming conditions in soft agar in the presence of vehicle or 1 μM of Jak2 inhibitor AZD1480 (Jak2i) (Scale bar=200 μm)\nf Colony forming capacity of an isogenic pair of SW480 cells scored 10 days after the indicated treatment. (*p≦0.04; triplicate cultures and repeated).\n(§1) SW480 and SW480^APC cells (Faux et al., 2004) were seeded in 2 ml of RPMI media supplemented with 10% FBS and 1% penicillin/streptomycin in 35 mm culture dishes at a density of 2×10^5 cells per dish. Three days later cultures were exposed to AZD1480 (1 μM) for 15 min. Co-immunofluorescence was then performed with antibodies to rabbit phospho-Stat3 (Tyr705, Santa Cruz #9134s, 1:200 dilution) and mouse β-catenin (Transduction Laboratories, 1:400). Colony formation assays of SW480 cells in soft agar were performed as described (Faux et al., 2004) in the presence of either AZD1480, (1 μM), the Stat3 inhibitor S3I-201 (Biovision, 50 μM) or recombinant human IL11 (Genetics Institute, 10 ng/ml). All experiments were performed in triplicates and repeated at least once. Vehicle was methylcellulose."}, "SW480 cells [2]": {"tested_on": "SW480 cells", "assay": "SW480 tumor xenografts", "assay_type": "in vivo, human", "method": "a Tumour xenograft burden in BALB/c nude mice injected s.c. with SW480 cells in matrigel and receiving daily gavage with AZD1480 (30 mg/kg) or vehicle starting on the 5th day after cell inoculation. (*p≦0.018; two sided t-test; n=12 mice), d Immunohistochemical analysis of p21 expression in xenograft tumours following 35 days of treatment with Jak2 inhibitor AZD1480 or vehicle. Scale bar=100 μm. e RT-qPCR expression analysis for SOCS3, p21 and CYCLIN D1 in SW480 xenografts from FIG. 5a and b (p=0.04; n=3 mice). One flank of female BALB/c nude mice was injected subcutaneously with 2×10^6 SW480 cells resuspended in Matrigel (BD Biosciences)/PBS (1:1) at a final volume of 200 μl. Once tumor became palpable (>100 mm^3) approximately 5 days later, mice received continuous daily gavage of the Jak2 inhibitor AZD1480 ([…] et al., 2009) (30 mg/kg, a gift from Astra-Zeneca). Gene expression analysis by RT-qPCR was performed using the SybrGreen method (ABI) as described previously ([…] et al., 2008). Fold change was calculated using the 2^-ΔΔCT method (Livak et al., 2001). Protein expression was analysed by Western blot by transferring SDS-PAGE separated protein lysates to nitrocellulose membrane and blocked either in 5% non-fat milk powder and probed with antibodies detecting p16 (Santa Cruz; #sc-467), Bmi1 (Millipore #[…]), Actin (Sigma; #A2066) or Gapdh (Santa Cruz; #sc-69778). All antibodies were diluted 1:1000 in BSA or non-fat milk powder and incubations were performed overnight. Tissues were fixed and immunohistochemistry performed as described previously (Sansom et al., 2007). Primary antibodies used were rabbit phospho-Stat3 to Tyr705 (Santa Cruz #9134s, 1:150), mouse β-catenin (Transduction Laboratories, 1:300), rabbit PCNA (Santa Cruz #7907, 1:100), rabbit […] (Santa Cruz N-262. Lot #C1309, 1:200), and goat p21 (Santa Cruz #Sc-397-G; 1:100)."}, "SW480 cells [3]": {"tested_on": "SW480 cells", "assay": "p-STAT3 / β-CATENIN immunofluorescence and SOCS3 RT-qPCR in SW480 cells", "assay_type": "cell-based, human", "method": "d Immunofluorescence staining for β-CATENIN or tyrosine-705 phosphorylated STAT3 in an isogenic pair of SW480 cells grown in the presence of 1 μM AZD1480 (Jak2i) or vehicle. SW480 cells are APC mutant and lack expression of functional APC protein, while SW480^APC cells have been reconstituted to express wild-type APC. Scale bar=20 μm.\ng RT-qPCR expression analysis for the STAT3 target gene SOCS3 in SW480 and SW480^APC CRC cells grown for 10 days under colony forming conditions in soft agar in the presence of the indicated treatment. Expression in the vehicle-treated cultures was arbitrarily set as 1. (*p≦0.04; triplicate cultures in each of two repeats).\nas §1\nGene expression analysis by RT-qPCR was performed using the SybrGreen method (ABI) as described previously (Phesse et al., 2008). Fold change was calculated using the 2^−ΔΔCT method (Livak et al., 2001). Protein expression was analysed by Western blot by transferring SDS-PAGE separated protein lysates to nitrocellulose membrane and blocked either in 5% non-fat milk powder and probed with antibodies detecting p16 (Santa Cruz; #sc-467), Bmi1 (Millipore #[…]), Actin (Sigma; #A2066) or Gapdh (Santa Cruz; #sc-69778). All antibodies were diluted 1:1000 in BSA or non-fat milk powder and incubations were performed overnight."}, "small intestine": {"tested_on": "small intestine", "assay": "Irradiation induced intestinal regeneration", "assay_type": "in vivo", "details": "gp130^F/F mice, AZD1480 30 mg/kg, 72 h after γ-irradiation (14 Gy)", "method": "a Immunohistochemical analysis for the proliferation marker PCNA on sections of small intestines of wild-type (Wt), gp130^F/F (F/F), Stat3^+/−, gp130^F/F;Stat3^+/− (F/F Stat3^+/−), gp130^ΔStat/ΔStat (Δ/Δ) and gp130^ΔStat/+ (Δ/+) as well as of Wt and F/F mice treated with Jak2 kinase inhibitor AZD1480 (Jak2i; 30 mg/kg) 72 h after exposure to γ-irradiation. Scale bar=100 μm.\nb Enumeration of intact crypts in cross sections from the proximal small intestine stained for PCNA obtained 72 h after exposure of mice of the indicated genotype to γ-irradiation. (*p≦0.04; n=3 mice).\nMice were irradiated with a single dose of 14 Gy of γ-irradiation (0.414 Gy/min) to determine regenerative potential of the small intestine as described (Ashton et al., 2010)."}, "DLD1 cells": {"tested_on": "DLD1 cells", "assay": "DLD1 tumor xenografts", "assay_type": "in vivo, mice (human DLD1 xenograft)", "details": "DLD1 (high Wnt signaling), BALB/c nude mice, daily gavage 30 mg/kg from day 7", "method": "c, d Tumour xenograft burden in BALB/c nude mice injected s.c. with DLD1 cells or RKO cells in PBS and receiving daily gavage with AZD1480 (30 mg/kg) or vehicle starting on the 7th day after cell inoculation. (*p≦0.0004; two sided t-test; n=8)."}}}
{"smiles": "Cc1cc(Nc2nc(N[C@@H](C)c3ncc(F)cn3)ncc2Cl)n[nH]1", "note": "[AZD1480]", "values": [{"measurement": "colony formation in soft agar", "setting": "SW480 cells [1]", "value": "strongly impaired"}, {"measurement": "growth of established SW480 tumours", "setting": "SW480 cells [2]; BALB/c nude mice, s.c., daily gavage 30 mg/kg from day 5", "value": "reduced the growth"}, {"measurement": "CYCLIND1 expression (RT-qPCR)", "setting": "SW480 cells [2]; RNA from SW480 xenografts", "value": "decrease"}, {"measurement": "SOCS3 expression (RT-qPCR)", "setting": "SW480 cells [2]; RNA from SW480 xenografts", "value": "decrease"}, {"measurement": "p21 expression (RT-qPCR)", "setting": "SW480 cells [2]; RNA from SW480 xenografts", "value": "increased"}, {"measurement": "p21 expression in tumours (immunohistochemistry)", "setting": "SW480 cells [2]; SW480 xenografts, 35 days of treatment, vs vehicle", "value": "increased"}, {"measurement": "accumulation of nuclear β-CATENIN", "setting": "SW480 cells [3]; APC-deficient SW480, 1 μM AZD1480", "value": "did not diminish"}, {"measurement": "accumulation of activated (phosphorylated) p-STAT3", "setting": "SW480 cells [3]; SW480, 1 μM AZD1480", "value": "reduced accumulation"}, {"measurement": "SOCS3 expression", "setting": "SW480 cells [3]; SW480, RT-qPCR, AZD1480 1 μM, IL11 10 ng/ml", "value": "reduced SOCS3 expression"}, {"measurement": "intestinal regeneration", "setting": "small intestine", "value": "impaired"}, {"measurement": "xenograft growth", "setting": "DLD1 cells", "value": "sufficient to reduce xenograft growth"}]}
